Results reported in patent US20250230193A1, “CYCLIC COMPOUND HAVING SELECTIVE KRAS INHIBITORY EFFECT ON HRAS AND NRAS” (CHUGAI SEIYAKU KABUSHIKI KAISHA, priority 2022, published 2025).
*1 amine or outer side, *2 acyl side, *3 side chain or, on linkers, in order; H or OH if unused. Where a SMILES comes first, the peptide text is derived from it. Bridges are numbered along the chain shown (N, C = ends). [ ]: non-standard residue; d: D form. The star is where a group is joined. hPhe(3-Cl-4-CF3) = N[C@@H](CCc1ccc(C(F)(F)F)c(Cl)c1)C(=O)O; X39 = Cc1ccc(C[C@@H](C(=O)[*:2])N(CC(C)C)[*:1])cc1; X49 = Cc1ccc(C[C@@H](C(=O)[*:2])N(CC2CC2)[*:1])cc1; X19 = CCCCN([C@@H](Cc1ccc(C)cc1)C(=O)[*:2])[*:1]; NPrPhe(4-Me) = CCCN[C@@H](Cc1ccc(C)cc1)C(=O)O; NEtPhe(4-Me) = CCN[C@@H](Cc1ccc(C)cc1)C(=O)O; X5 = CCCN([C@H](C(=O)[*:2])C1CCCC1)[*:1]; NMeGly(cPent) = CN[C@H](C(=O)O)C1CCCC1; Hyp = O=C(O)[C@@H]1C[C@@H](O)CN1; NMeD = CN[C@@H](CC(=O)O)C(=O)O; NMeL = CN[C@@H](CC(C)C)C(=O)O; Morpholide = C1CN(*)CCO1; NMeA = CN[C@@H](C)C(=O)O; Ac5c = NC1(C(=O)O)CCCC1; Aze = O=C(O)[C@@H]1CCN1; NEtG = CCNCC(=O)O; X45 = C1CCC(*)OC1; Sar = CNCC(=O)O

Experiments:
[1] = target: GDP-bound HRAS wild-type protein (Homo sapiens, UniProt P01112); assay: Binding to HRAS by surface plasmon resonance (SPR), Single Cycle Kinetics; settings: KD ratio HRAS/KRAS, SPR
GDP-bound HRAS wild-type protein, sequence (P01112 whole entry): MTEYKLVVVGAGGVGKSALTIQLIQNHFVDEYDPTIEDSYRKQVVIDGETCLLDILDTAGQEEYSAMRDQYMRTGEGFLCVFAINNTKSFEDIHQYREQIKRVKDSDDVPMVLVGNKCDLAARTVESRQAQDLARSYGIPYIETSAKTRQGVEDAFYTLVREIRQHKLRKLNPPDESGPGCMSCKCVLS

[2] = target: GDP-bound NRAS wild-type protein (Homo sapiens, UniProt P01111); assay: Binding to NRAS by surface plasmon resonance (SPR), Single Cycle Kinetics; settings: KD ratio NRAS/KRAS, SPR
GDP-bound NRAS wild-type protein, sequence (P01111 whole entry): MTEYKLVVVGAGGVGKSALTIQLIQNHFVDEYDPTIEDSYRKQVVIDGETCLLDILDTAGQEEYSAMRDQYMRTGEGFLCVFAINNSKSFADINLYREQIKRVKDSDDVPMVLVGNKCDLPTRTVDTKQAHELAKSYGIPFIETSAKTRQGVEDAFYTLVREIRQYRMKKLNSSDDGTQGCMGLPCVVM

Row | Structure (SMILES) | HRAS/KRAS (ratio of KD for GDP-bound HRAS wild-type to KD for KRAS) [1] | NRAS/KRAS (ratio of KD for GDP-bound NRAS wild-type to KD for KRAS) [2]
1 | CCCN1C(=O)CN(C)C(=O)CN(C)C(=O)[C@H]([C@@H](C)CC)NC(=O)[C@H](CC(C)C)N(C)C(=O)C[C@@H](C(=O)N2CCOCC2)N(C)C(=O)[C@H](C2CCCC2)N(C)C(=O)C2(CCCC2)NC(=O)[C@@H]2CCCN2C(=O)[C@H](CCc2ccc(C(F)(F)F)c(Cl)c2)NC(=O)CN(C)C(=O)[C@@H]1C1CCCC1 [PP0061] ([NMeL]I[Sar][Sar][X5][Sar][hPhe(3-Cl-4-CF3)]P[Ac5c][NMeGly(cPent)][NMeD]-Morpholide; lactam N-11) | C (A compound having a KD ratio of 0.1 or more and less than 3 is denoted as C) | B (a compound having 3 or more and less than 10 is denoted as B)
2 | CCCCN1C(=O)CN(C)C(=O)CN(C)C(=O)[C@H]([C@@H](C)CC)NC(=O)[C@H](CC(C)C)N(C)C(=O)C[C@@H](C(=O)N2CCOCC2)N(C)C(=O)[C@H](C2CCCC2)N(C)C(=O)C2(CCCC2)NC(=O)[C@@H]2CCCN2C(=O)[C@H](CCc2ccc(C(F)(F)F)c(Cl)c2)NC(=O)CN(C)C(=O)[C@@H]1Cc1ccc(C)cc1 [PP0062] ([NMeL]I[Sar][Sar][X19][Sar][hPhe(3-Cl-4-CF3)]P[Ac5c][NMeGly(cPent)][NMeD]-Morpholide; lactam N-11) | C (A compound having a KD ratio of 0.1 or more and less than 3 is denoted as C) | C (A compound having a KD ratio of 0.1 or more and less than 3 is denoted as C)
3 | CC[C@H](C)[C@@H]1NC(=O)[C@H](CC(C)C)N(C)C(=O)C[C@@H](C(=O)N2CCOCC2)N(C)C(=O)[C@H](C2CCCC2)N(C)C(=O)C2(CCCC2)NC(=O)[C@@H]2CCCN2C(=O)[C@H](CCc2ccc(C(F)(F)F)c(Cl)c2)NC(=O)CN(C)C(=O)[C@H](Cc2ccc(C)cc2)N(CC(C)C)C(=O)CN(C)C(=O)CN(C)C1=O [PP0063] ([NMeL]I[Sar][Sar][X39][Sar][hPhe(3-Cl-4-CF3)]P[Ac5c][NMeGly(cPent)][NMeD]-Morpholide; lactam N-11) | C (A compound having a KD ratio of 0.1 or more and less than 3 is denoted as C) | C (A compound having a KD ratio of 0.1 or more and less than 3 is denoted as C)
4 | CC[C@H](C)[C@@H]1NC(=O)[C@H](CC(C)C)N(C)C(=O)C[C@@H](C(=O)N2CCOCC2)N(C)C(=O)[C@H](C2CCCC2)N(C)C(=O)C2(CCCC2)NC(=O)[C@@H]2CCCN2C(=O)[C@H](CCc2ccc(C(F)(F)F)c(Cl)c2)NC(=O)CN(C)C(=O)[C@H](Cc2ccc(C)cc2)N(CC2CC2)C(=O)CN(C)C(=O)CN(C)C1=O [PP0064] ([NMeL]I[Sar][Sar][X49][Sar][hPhe(3-Cl-4-CF3)]P[Ac5c][NMeGly(cPent)][NMeD]-Morpholide; lactam N-11) | C (A compound having a KD ratio of 0.1 or more and less than 3 is denoted as C) | C (A compound having a KD ratio of 0.1 or more and less than 3 is denoted as C)
5 | CCCN1C(=O)CN(CC)C(=O)CN(C)C(=O)[C@H]([C@@H](C)CC)NC(=O)[C@H](CC(C)C)N(C)C(=O)C[C@@H](C(=O)N2CCOCC2)N(C)C(=O)[C@H](C2CCCC2)N(C)C(=O)C2(CCCC2)NC(=O)[C@@H]2CCCN2C(=O)[C@H](CCc2ccc(C(F)(F)F)c(Cl)c2)NC(=O)CN(C)C(=O)[C@@H]1Cc1ccc(C)cc1 [PP0065] ([NMeL]I[Sar][NEtG][NPrPhe(4-Me)][Sar][hPhe(3-Cl-4-CF3)]P[Ac5c][NMeGly(cPent)][NMeD]-Morpholide; lactam N-11) | C (A compound having a KD ratio of 0.1 or more and less than 3 is denoted as C) | C (A compound having a KD ratio of 0.1 or more and less than 3 is denoted as C)
6 | CCCN1C(=O)CN(C)C(=O)CN(C)C(=O)[C@H]([C@@H](C)CC)NC(=O)[C@H](CC(C)C)N(C)C(=O)C[C@@H](C(=O)N2CCOCC2)N(C)C(=O)[C@H](C2CCCC2)N(C)C(=O)C2(CCCC2)NC(=O)[C@@H]2CCCN2C(=O)[C@H](CCc2ccc(C(F)(F)F)c(Cl)c2)NC(=O)CN(CC)C(=O)[C@@H]1Cc1ccc(C)cc1 [PP0066] ([NMeL]I[Sar][Sar][NPrPhe(4-Me)][NEtG][hPhe(3-Cl-4-CF3)]P[Ac5c][NMeGly(cPent)][NMeD]-Morpholide; lactam N-11) | C (A compound having a KD ratio of 0.1 or more and less than 3 is denoted as C) | B (a compound having 3 or more and less than 10 is denoted as B)
7 | CC[C@H](C)[C@@H]1NC(=O)[C@H](CC(C)C)N(C)C(=O)C[C@@H](C(=O)N2CCOCC2)N(C)C(=O)[C@H](C2CCCC2)N(C)C(=O)C2(CCCC2)NC(=O)[C@@H]2C[C@@H](OC3CCCCO3)CN2C(=O)[C@H](CCc2ccc(C(F)(F)F)c(Cl)c2)NC(=O)CN(C)C(=O)[C@H](Cc2ccc(C)cc2)N(CC)C(=O)[C@@H]2CCN2C(=O)[C@H](C)N(C)C1=O (some centres unmarked) [PP0067] ([NMeL]I[NMeA][Aze][NEtPhe(4-Me)][Sar][hPhe(3-Cl-4-CF3)][Hyp](X45)[Ac5c][NMeGly(cPent)][NMeD]-Morpholide; lactam N-11) | C (A compound having a KD ratio of 0.1 or more and less than 3 is denoted as C) | C (A compound having a KD ratio of 0.1 or more and less than 3 is denoted as C)
